Measurements as given in patent publication US20190106460A1, “BINDING INHIBITORS OF THE BETA. TRANSDUCIN REPEAT-CONTAINING PROTEIN” (priority 2011, published 2019).
Where two headings read alike, the source gives them in different places. Starred links: 1 amine or outer side, 2 acyl side, 3 side chain; linkers in the order of their positions; H or OH if unused. Non-standard residues stand in square brackets, D forms with d. Residues, ends and D or L forms follow the SMILES beside them. *: point of attachment. Phe(4-NO2) = N[C@@H](Cc1ccc([N+](=O)[O-])cc1)C(=O)O; Phe(3-F) = N[C@@H](Cc1cccc(F)c1)C(=O)O; 1Nal = N[C@@H](Cc1cccc2ccccc12)C(=O)O; Phe(2-F) = N[C@@H](Cc1ccccc1F)C(=O)O; pS = N[C@@H](COP(=O)(O)O)C(=O)O; Suc = O=C(CCC(=O)[*:2])[*:1]; Ethoxycarbonyl = CCOC(=O)*

What was measured:
FBW7/Skp1 = FBW7/Skp1 (Homo sapiens, UniProt Q969H0); assay: Selectivity assay vs other E3s: Fbw7; format: biochemical; conditions: for inhibition at 100 µM: value in brackets, read-out: % Inhibition Fbw7 @ (100 μM); for inhibition at 10 µM: read-out: % Inhibition Fbw7 @ 10 μM
Outline: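 FBW7/Skp1 E3 ubiquitination of cyclin E substrate in 50 mM HEPES pH 7.5, 75 mM NaCl, 1 mM DTT; preincubated 30 min at room temperature before Mg/ATP, then 60 min more. Products resolved by 10% SDS-PAGE and immunoblotted with anti-cyclin E.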

βTrCP [1] = target: βTrCP (Homo sapiens, UniProt Q9Y297); assay: Fluorescence polarisation (FP) binding assay with fluorescein-tagged IκB peptide
Target sequence in this assay (P63208 whole entry partner, one chain of several): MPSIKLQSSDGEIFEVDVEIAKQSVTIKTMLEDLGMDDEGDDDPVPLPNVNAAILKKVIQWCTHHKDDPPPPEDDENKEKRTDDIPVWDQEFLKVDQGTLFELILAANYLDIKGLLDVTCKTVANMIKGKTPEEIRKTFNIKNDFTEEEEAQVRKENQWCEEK

βTrCP/Skp1 = βTrCP/Skp1 (Homo sapiens, UniProt Q9Y297); assay: Surface plasmon resonance (SPR), Biacore T200; format: binding; conditions: apparent KD averaged over both surfaces
Procedure: Surface Plasmon Resonance (SPR)
Experiments were carried out using the Biacore T200 SPR detection system. This system exploits the phenomenon of surface plasmon resonance (SPR) to monitor interactions between molecules. The system involves the attachment of one interacting partner to a surface (an appropriate sensor chip) while the other interacting partner is passed over it in solution. The binding of molecules to the surface generates an SPR response (measured in response units (RU)) that is proportional to the mass and amount of the biomolecule (in this case βTrCP/Skp1) bound to the chip. The relative responses obtained are dependent on the concentration of the molecule binding. At RUmaximum, the attached protein's binding sites are saturated. Binding events can be followed in real time and a range of interaction characteristics can be determined including kinetics, specificity of interactions and the concentration of specific molecules in a sample.
As βTrCP was His tagged, an NTA sensor chip was used. This sensor chip has a dextran surface matrix with immobilized nitrilotriacetic acid (NTA) which provides a means of capturing polyHis-tagged proteins through Nickel chelation. It was hoped that addition of Ni^+ would orient the protein in a specific (and hopefully active) manner as it is covalently immobilised via amine coupling. Addition of EDC:NHS (N-ethyl-N′-(3-[…])-carbodiimide:N-hydroxysuccinimide) converts carboxyl groups on the dextran sensor chip surface to succinamide esters which readily form covalent bonds with primary amines. Each chip contains four flow cells (each a separate surface) which means that compounds/peptides can be passed over different forms of βTrCP and a reference surface simultaneously. If binding to βTrCP is occurring, responses should be the same (accounting for differences in density of surface etc) on each surface.
Two different βTrCP protein complexes were immobilised on to an NTA biacore sensor chip. One included the GSTSkp1 fusion (HisβTrCP/GSTSkp1) while the other was immobilised after GST Removal by Thrombin (HisβTrCP/Skp1). To ensure that the GST moiety is completely removed from Skp1, βTrCP/GSTSkp1 was incubated with thrombin ((10units/mg protein) for at least 16 hours at room temperature in 10mMHEPES 150mMNaCl pH7.4+2 mM CaCl2. Thrombin and GST were removed from βTrCP/Skp1 by buffer exchange through a 50 KDa MWCO vivaspin concentrator.
Protein Immobilisation Procedure for NTA Chip
Ni+ (500 μM NiCl) loaded on to surface at a flow rate of 5 μl/min for 60s. EDC/NHS (activates dextran carboxylates) loaded at a flow rate of 5 μl/min for 240s. Protein ([protein]=100 nM to 1 μM) loaded at a flow rate of 10 μl/min for 180s. Strip solution (350 μM EDTA/1M NaCl) added at flow rate of 10 μl/min for 30s (to chelate excess Ni+ and remove non-covalently bound protein e.g. protein oligomers). Quench solution (ethanolamine) at flow rate of 5 μl/min for 240s (to deactivate surface molecules on the chip that have not crosslinked protein). The immobilisation buffer used was 10 mM HEPES pH 7.4, 150 mM NaCl,
GST Capture Procedure (for Immobilisation Via GSTSkp1)
EDC:NHS was injected at 5 μl/min for 4 min to activate surface for amine coupling (this converts carboxyl groups on the surface of the chip to succinamide esters that react with primary amines)
Anti-GST (60 μg/ml). was loaded at 10 μl/min for 4 min resulting in an increase in response units of 6730 (Biacore manual states it should result in ˜7000)
Ethanolamine was injected at 5 μl/min for 5 min to deactivate remaining unreacted esters at surface (quenching).
Injection of a low concentration of purified GST (from kit) was injected for 3 mins at 5 μl/min before running a regeneration cycle with glycine pH2.0 that disrupts the antibody-GST interaction. […]

β-TrCP1/Skp1 = β-TrCP1/Skp1 (Homo sapiens, UniProt Q9Y297); assay: βTrCP ubiquitination assay (Ub assay); format: biochemical; conditions: for Ub Assay 10 μM: 10 μM compound; for Ub Assay 100 μM: 100 μM compound
Outline: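 Compounds tested in duplicate at 10 and 100 μM in βTrCP(IκBα) and βTrCP(β-catenin) cascades with UBE1 E1, UbcH3 E2 and biotinylated ubiquitin; substrate phosphorylation done without compound, ubiquitination steps with compound. Product captured on anti-c-Myc plates and detected with SA-Ru TAG by MSD electrochemiluminescence.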

Skp2 = Skp2 (Homo sapiens, UniProt Q13309); assay: Selectivity assay vs other E3s: Skp2; format: biochemical; conditions: for inhibition at 100 µM: value in brackets, read-out: % Inhibition Skp2 @ (100 μM); for inhibition at 10 µM: read-out: % Inhibition Skp2 @ 10 μM
Outline: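 Skp2 ubiquitination was measured in master mixes of 50 mM Herpes buffer, pH 7.5, with 75 mM NaCl and 1 mM DTT, lacking Mg or ATP. Test compounds were preincubated for 30 minutes at room temperature, Mg/ATP was added for a further 60 minutes, and reactions were boiled in SDS loading buffer, resolved on 10% SDS-PAGE, blotted to nitrocellulose and probed with HRP-Streptavidin.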

βTrCP [2] = target: T1, βTrCP (Homo sapiens, UniProt Q9Y297); assay: Biotin pull down assay with biotinylated IκB peptide; format: binding; conditions: for Biotin Pulldown Assay 10 μM: 10 μM compound; for Biotin Pulldown Assay 100 μM: 100 μM compound
T1 sequence (Q9Y297 1-605): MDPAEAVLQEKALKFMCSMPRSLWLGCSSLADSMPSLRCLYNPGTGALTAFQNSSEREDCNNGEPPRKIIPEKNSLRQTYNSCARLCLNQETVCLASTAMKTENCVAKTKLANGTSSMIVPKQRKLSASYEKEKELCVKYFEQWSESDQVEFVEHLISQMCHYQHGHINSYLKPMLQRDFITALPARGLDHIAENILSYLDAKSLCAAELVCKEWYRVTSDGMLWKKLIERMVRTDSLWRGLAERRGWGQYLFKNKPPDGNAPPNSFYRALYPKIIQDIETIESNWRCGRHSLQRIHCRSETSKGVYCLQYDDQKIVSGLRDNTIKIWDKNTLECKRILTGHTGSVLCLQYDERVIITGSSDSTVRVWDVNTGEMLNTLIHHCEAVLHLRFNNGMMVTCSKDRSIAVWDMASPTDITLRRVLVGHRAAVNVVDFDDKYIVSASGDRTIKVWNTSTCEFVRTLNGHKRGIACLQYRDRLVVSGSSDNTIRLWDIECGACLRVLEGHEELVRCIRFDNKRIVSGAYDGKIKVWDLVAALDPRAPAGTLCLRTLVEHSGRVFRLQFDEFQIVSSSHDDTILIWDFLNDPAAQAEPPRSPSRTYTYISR

[3] = Table 11, with spread, read-out: FP IC50/μM
[4] = Tables 1, 3, 7, 8, 10 nM fluorescein-tagged IκB peptide, read-out: FP Assay IC50/μM

FBW7/Skp1, sequence (Q969H0 whole entry, species assumed): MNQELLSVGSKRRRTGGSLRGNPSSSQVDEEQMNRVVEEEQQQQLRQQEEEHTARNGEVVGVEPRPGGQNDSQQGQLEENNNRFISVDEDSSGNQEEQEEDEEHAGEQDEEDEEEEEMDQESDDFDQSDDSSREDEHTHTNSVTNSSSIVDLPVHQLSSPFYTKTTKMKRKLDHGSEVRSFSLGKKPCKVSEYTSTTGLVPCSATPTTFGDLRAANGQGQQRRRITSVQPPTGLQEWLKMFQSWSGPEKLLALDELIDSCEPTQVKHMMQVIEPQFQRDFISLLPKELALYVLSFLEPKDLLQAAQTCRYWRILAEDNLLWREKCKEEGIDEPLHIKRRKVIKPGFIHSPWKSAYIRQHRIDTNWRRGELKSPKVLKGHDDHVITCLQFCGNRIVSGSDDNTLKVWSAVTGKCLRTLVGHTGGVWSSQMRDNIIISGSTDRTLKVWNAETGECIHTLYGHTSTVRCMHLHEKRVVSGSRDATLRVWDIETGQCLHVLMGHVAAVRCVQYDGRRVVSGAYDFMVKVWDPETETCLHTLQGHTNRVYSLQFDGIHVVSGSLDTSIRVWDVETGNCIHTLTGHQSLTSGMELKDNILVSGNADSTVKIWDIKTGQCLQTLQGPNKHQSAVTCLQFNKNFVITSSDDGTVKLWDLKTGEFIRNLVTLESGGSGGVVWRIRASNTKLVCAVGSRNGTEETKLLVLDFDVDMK
FBW7/Skp1, sequence (P63208 whole entry partner, species assumed): as the sequence (P63208 whole entry partner, one chain of several) above
FBW7/Skp1, sequence (Q13616 whole entry partner, species assumed): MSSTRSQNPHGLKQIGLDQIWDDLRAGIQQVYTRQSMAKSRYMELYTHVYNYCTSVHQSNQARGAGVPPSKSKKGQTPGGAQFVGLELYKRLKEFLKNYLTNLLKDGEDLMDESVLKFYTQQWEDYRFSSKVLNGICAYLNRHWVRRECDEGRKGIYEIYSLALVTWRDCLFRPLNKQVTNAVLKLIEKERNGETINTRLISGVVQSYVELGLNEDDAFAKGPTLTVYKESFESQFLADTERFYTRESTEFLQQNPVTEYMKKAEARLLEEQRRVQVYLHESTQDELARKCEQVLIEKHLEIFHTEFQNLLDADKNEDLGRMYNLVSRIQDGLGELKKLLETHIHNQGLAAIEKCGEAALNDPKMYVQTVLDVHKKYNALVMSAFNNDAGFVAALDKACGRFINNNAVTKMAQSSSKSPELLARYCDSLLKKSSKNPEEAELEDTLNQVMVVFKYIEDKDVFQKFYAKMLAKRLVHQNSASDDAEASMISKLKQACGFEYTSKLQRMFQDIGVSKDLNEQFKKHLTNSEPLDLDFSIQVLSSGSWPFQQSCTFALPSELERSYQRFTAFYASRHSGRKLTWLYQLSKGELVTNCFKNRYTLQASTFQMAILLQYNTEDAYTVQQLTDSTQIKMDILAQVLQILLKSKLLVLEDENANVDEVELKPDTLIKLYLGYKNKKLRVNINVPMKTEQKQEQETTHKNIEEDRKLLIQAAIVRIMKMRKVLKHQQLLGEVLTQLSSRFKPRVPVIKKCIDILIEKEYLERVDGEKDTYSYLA
FBW7/Skp1, sequence (P62877 whole entry partner, species assumed): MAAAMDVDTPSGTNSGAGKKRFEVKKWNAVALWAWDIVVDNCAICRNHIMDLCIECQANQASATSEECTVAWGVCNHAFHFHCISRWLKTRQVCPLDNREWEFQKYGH
βTrCP/Skp1, sequence (P63208 whole entry partner, one chain of several): as the sequence (P63208 whole entry partner, one chain of several) above
β-TrCP1/Skp1, sequence (P63208 2-163 partner limits assumed, one chain of several): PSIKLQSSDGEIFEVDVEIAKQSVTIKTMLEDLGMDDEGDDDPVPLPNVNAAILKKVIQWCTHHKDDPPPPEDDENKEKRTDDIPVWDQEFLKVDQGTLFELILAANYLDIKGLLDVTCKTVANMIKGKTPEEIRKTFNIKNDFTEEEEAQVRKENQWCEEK
Skp2, sequence (Q13309 whole entry, species assumed): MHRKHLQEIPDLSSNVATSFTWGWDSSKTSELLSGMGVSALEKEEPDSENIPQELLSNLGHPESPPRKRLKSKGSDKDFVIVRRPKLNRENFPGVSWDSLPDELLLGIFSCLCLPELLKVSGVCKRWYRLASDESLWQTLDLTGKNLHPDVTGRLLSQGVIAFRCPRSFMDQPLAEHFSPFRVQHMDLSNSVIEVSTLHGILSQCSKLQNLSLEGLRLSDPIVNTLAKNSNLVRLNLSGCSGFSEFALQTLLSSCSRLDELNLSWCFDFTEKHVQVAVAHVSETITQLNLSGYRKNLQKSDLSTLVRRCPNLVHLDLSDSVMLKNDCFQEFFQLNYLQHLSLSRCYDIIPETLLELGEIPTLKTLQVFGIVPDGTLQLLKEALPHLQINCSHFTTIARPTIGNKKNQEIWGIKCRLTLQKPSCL
Skp2, sequence (P63208 whole entry partner, species assumed): as the sequence (P63208 whole entry partner, one chain of several) above
Skp2, sequence (Q13616 whole entry partner, species assumed): as the sequence (Q13616 whole entry partner, species assumed) above
Skp2, sequence (P62877 whole entry partner, species assumed): as the sequence (P62877 whole entry partner, species assumed) above

| SMILES | inhibition at 100 µM (FBW7/Skp1) | inhibition at 10 µM (FBW7/Skp1) | IC50 (βTrCP [1]; [3]) | IC50 (βTrCP [1]; [4]) | Kd (βTrCP/Skp1) | Ub Assay 10 μM (β-TrCP1/Skp1) | Ub Assay 100 μM (β-TrCP1/Skp1) | inhibition at 100 µM (Skp2) | inhibition at 10 µM (Skp2) | Biotin Pulldown Assay 10 μM (βTrCP [2]) | Biotin Pulldown Assay 100 μM (βTrCP [2]) |
| --- | --- | --- | --- | --- | --- | --- | --- | --- | --- | --- | --- |
| COc1ccc(C[C@H](NC(=O)[C@H](Cc2ccccc2F)NC(=O)CNC(=O)[C@H](CCC(=O)O)NC(=O)CCC(=O)O)C(=O)N[C@@H](CCC(=O)O)C(N)=O)cc1 [UBP006, Suc-EGF(2F)Y(Me)E-NH2] (Suc-EG[Phe(2-F)]Y(Me)E-NH2) | 4% | 0% | 3.28 ± 0.5 µM | 3.2 µM | 4.4 ± 0.82 µM | no effect/ | inhibits | 4% | 0% | no effect/ | reduces |
| CC[C@H](C)[C@H](NC(=O)CNC(=O)[C@H](COP(=O)(O)O)NC(=O)[C@@H](N)CC(=O)O)C(=O)N[C@@H](Cc1ccccc1)C(=O)N[C@@H](CCC(=O)O)C(N)=O [UBP001, DpSGIFE-NH2] (H-D[pS]GIFE-NH2) | 0% | 0% | 1.24 ± 0.145 µM | – | 1.48 ± 0.286 µM | reduces/ | inhibits | 13% | 8% | reduces/ | inhibits |
| NC(=O)[C@H](CCC(=O)O)NC(=O)[C@H](Cc1c[nH]c2ccccc12)NC(=O)[C@H](Cc1cccc(F)c1)NC(=O)CNC(=O)[C@H](CCC(=O)O)NC(=O)CCC(=O)O [UBP014, Suc-EGF(3F)WE-NH2] (Suc-EG[Phe(3-F)]WE-NH2) | 0% | 0% | 0.095 ± 0.009 µM | 0.095 µM | 0.455 ± 0.03 µM | reduces/ | inhibits | 6% | 5% | reduces/ | inhibits |
| NC(=O)CC[C@H](NC(=O)CCC(=O)O)C(=O)NCC(=O)N[C@@H](Cc1cccc(F)c1)C(=O)N[C@@H](Cc1ccc([N+](=O)[O-])cc1)C(=O)N[C@@H](CCC(=O)O)C(N)=O [UBP012, Suc-QGF(3F)F(4NO2)E-NH2] | 0% | 0% | 2.56 ± 0.374 µM | – | 5.49 ± 2.27 µM | no effect/ | inhibits | 0% | 0% | no effect/ | reduces |
| NC(=O)[C@H](CCC(=O)O)NC(=O)[C@H](Cc1ccc([N+](=O)[O-])cc1)NC(=O)[C@H](Cc1cccc(F)c1)NC(=O)CNC(=O)[C@H](CCC(=O)O)NC(=O)CCC(=O)O [UBP004, Suc-EGF(3F)F(4NO2)E-NH2] (Suc-EG[Phe(3-F)][Phe(4-NO2)]E-NH2) | 2% | 0% | 0.522 ± 0.049 µM | – | 4.53 ± 0.681 µM | inhibits/ | inhibits | 3% | 0% | reduces/ | inhibits |
| NC(=O)[C@H](CCC(=O)O)NC(=O)[C@H](Cc1cccc2ccccc12)NC(=O)[C@H](Cc1ccc(O)cc1)NC(=O)CNC(=O)[C@H](CCC(=O)O)NC(=O)CCC(=O)O [UBP009, Suc-EGY1NalE-NH2] (Suc-EGY[1Nal]E-NH2) | 5% | 1% | 1.15 ± 0.222 µM | 1.15 µM | 1.49 ± 0.625 µM | reduces/ | inhibits | 6% | 0% | no effect/ | inhibits |
| CCOC(=O)N[C@H](CC(=O)O)C(=O)N[C@@H](CCC(=O)O)C(=O)NCC(=O)N[C@@H](Cc1cccc(F)c1)C(=O)N[C@@H](Cc1c[nH]c2ccccc12)C(=O)N[C@@H](CCC(=O)O)C(N)=O [UBP023, EtO(CO)-dEGF(3F)WE-NH2] (Ethoxycarbonyl-[dD]EG[Phe(3-F)]WE-NH2) | 12% | 0% | 0.045 ± 0.005 µM | – | 0.034 ± 0.017 µM | inhibits/ | inhibits | 4% | 4% | reduces/ | inhibits |
| NC(=O)[C@H](CCC(=O)O)NC(=O)[C@H](Cc1ccccc1)NC(=O)[C@H](Cc1ccc(O)cc1)NC(=O)CNC(=O)[C@H](CCC(=O)O)NC(=O)CCC(=O)O [UBP007, Suc-EGYFE-NH2] (Suc-EGYFE-NH2) | 0% | 0% | 1.04 ± 0.101 µM | 1 µM | 0.537 ± 0.117 µM | reduces/ | inhibits | 28% | 11% | no effect/ | inhibits |
